Assay results: patent US20240158446A1, “CYCLIC COMPOUND HAVING SELECTIVE INHIBITORY ACTION ON KRAS OVER HRAS AND NRAS” (CHUGAI SEIYAKU KABUSHIKI KAISHA, priority 2021, published 2024)
Read-outs that look alike come from different tables or passages of the source. *1 amine or outer side, *2 acyl side, *3 side chain or, on linkers, in order; H or OH if unused. Where a SMILES comes first, the peptide text is derived from it. Bridges are numbered along the chain shown (N, C = ends). [ ]: non-standard residue; d: D form. The star is where a group is joined. hPhe(3-Cl-4-CF3) = N[C@@H](CCc1ccc(C(F)(F)F)c(Cl)c1)C(=O)O; X38 = C#CCN([C@@H](Cc1ccc(C(F)(F)F)cc1)C(=O)[*:2])[*:1]; NPrPhe(4-CF3) = CCCN[C@@H](Cc1ccc(C(F)(F)F)cc1)C(=O)O; NEtPhe(4-CF3) = CCN[C@@H](Cc1ccc(C(F)(F)F)cc1)C(=O)O; NEtPhe(4-Me) = CCN[C@@H](Cc1ccc(C)cc1)C(=O)O; NMeGly(cPent) = CN[C@H](C(=O)O)C1CCCC1; Aze(3S-Me) = C[C@H]1CN[C@@H]1C(=O)O; Hyp = O=C(O)[C@@H]1C[C@@H](O)CN1; NMeD = CN[C@@H](CC(=O)O)C(=O)O; NMeL = CN[C@@H](CC(C)C)C(=O)O; Ac6c = NC1(C(=O)O)CCCCC1; Morpholide = C1CN(*)CCO1; NMeA = CN[C@@H](C)C(=O)O; Ac5c = NC1(C(=O)O)CCCC1; Aze = O=C(O)[C@@H]1CCN1; Ac4c = NC1(C(=O)O)CCC1; NPrGly = CCCNCC(=O)O; NEtG = CCNCC(=O)O; Sar = CNCC(=O)O

Columns and labels:
[1] = biological target: GDP-bound HRAS wild-type protein (Homo sapiens, UniProt P01112); experiment: Binding to HRAS by surface plasmon resonance (SPR), Single Cycle Kinetics; settings: SPR, GDP-bound HRAS wild-type protein vs GDP-bound KRAS wild-type protein
[2] = biological target: GDP-bound NRAS wild-type protein (Homo sapiens, UniProt P01111); experiment: Binding to NRAS by surface plasmon resonance (SPR), Single Cycle Kinetics; settings: SPR, GDP-bound NRAS wild-type protein vs GDP-bound KRAS wild-type protein
[3] = biological target: GDP-bound KRAS wild-type protein (Homo sapiens, UniProt P01116); experiment: Binding to KRAS by surface plasmon resonance (SPR), Single Cycle Kinetics; settings: GDP-bound KRAS wild-type protein, read-out: KRAS KD
[4] = SPR Single Cycle Kinetics, 1:1 binding model

Sequence of GDP-bound KRAS wild-type protein (P01116 whole entry): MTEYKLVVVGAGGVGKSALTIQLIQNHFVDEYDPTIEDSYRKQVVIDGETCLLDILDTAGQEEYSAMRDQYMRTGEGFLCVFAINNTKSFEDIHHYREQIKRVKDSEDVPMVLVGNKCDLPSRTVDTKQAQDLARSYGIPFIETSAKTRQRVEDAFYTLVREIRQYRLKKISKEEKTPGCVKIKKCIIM
Sequence of GDP-bound HRAS wild-type protein (P01112 whole entry): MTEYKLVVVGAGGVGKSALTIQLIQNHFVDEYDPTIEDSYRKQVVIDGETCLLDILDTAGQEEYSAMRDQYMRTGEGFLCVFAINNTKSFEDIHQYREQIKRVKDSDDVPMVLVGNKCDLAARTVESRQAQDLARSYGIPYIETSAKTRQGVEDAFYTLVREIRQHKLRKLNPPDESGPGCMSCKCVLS
Sequence of GDP-bound NRAS wild-type protein (P01111 whole entry): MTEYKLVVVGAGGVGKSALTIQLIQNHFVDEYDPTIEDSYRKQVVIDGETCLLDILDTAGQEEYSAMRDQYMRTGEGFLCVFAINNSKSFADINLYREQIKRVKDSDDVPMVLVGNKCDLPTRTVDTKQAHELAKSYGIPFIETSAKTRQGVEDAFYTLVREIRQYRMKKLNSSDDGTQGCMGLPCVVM

| Structure (SMILES) | HRAS/KRAS (ratio of KD value for HRAS to KD value for KRAS) [1] | NRAS/KRAS (ratio of KD value for NRAS to KD value for KRAS) [2] | Kd [3, 4] [nM] | further results |
| --- | --- | --- | --- | --- |
| C#CCN1C(=O)[C@@H]2CCN2C(=O)[C@H](C)N(C)C(=O)[C@H]([C@@H](C)CC)NC(=O)[C@H](CC(C)C)N(C)C(=O)C[C@@H](C(=O)N2CCOCC2)N(C)C(=O)[C@H](C2CCCC2)N(C)C(=O)C2(CCCC2)NC(=O)[C@@H]2CCCN2C(=O)[C@H](CCc2ccc(C(F)(F)F)c(Cl)c2)NC(=O)CN(C)C(=O)[C@@H]1Cc1ccc(C(F)(F)F)cc1 [PP0116] ([NMeL]I[NMeA][Aze][X38][Sar][hPhe(3-Cl-4-CF3)]P[Ac5c][NMeGly(cPent)][NMeD]-Morpholide; lactam N-11) | C (A compound having a KD ratio of 0.1 or more and less than 3 is denoted as C) | C (A compound having a KD ratio of 0.1 or more and less than 3 is denoted as C) | 0.27 |  |
| CCCN1CC(=O)NC2(CCCC2)C(=O)N(C)[C@@H](C2CCCC2)C(=O)N(C)[C@H](C(=O)N2CCOCC2)CC(=O)N(C)[C@@H](CC(C)C)C(=O)N[C@@H]([C@@H](C)CC)C(=O)N2CC[C@H]2C(=O)N(C)CC(=O)N(CCC)[C@@H](Cc2ccc(C(F)(F)F)cc2)C(=O)N(C)CC(=O)N[C@@H](CCc2ccc(C(F)(F)F)c(Cl)c2)C1=O [PP0315] ([NMeL]I[Aze][Sar][NPrPhe(4-CF3)][Sar][hPhe(3-Cl-4-CF3)][NPrGly][Ac5c][NMeGly(cPent)][NMeD]-Morpholide; lactam N-11) | B (a compound having 3 or more and less than 10 is denoted as B) | B (a compound having 3 or more and less than 10 is denoted as B) | 3.8 |  |
| CCO[C@@H]1C[C@H]2C(=O)NC3(CCC3)C(=O)N(C)[C@@H](C3CCCC3)C(=O)N(C)[C@H](C(=O)N3CCOCC3)CC(=O)N(C)[C@@H](CC(C)C)C(=O)N[C@@H]([C@@H](C)CC)C(=O)N(C)CC(=O)N(C)[C@H]3CCCCCN(C3=O)[C@@H](Cc3ccc(F)c(Cl)c3)C(=O)N(C)CC(=O)N[C@@H](CCc3cc(F)c(C(F)(F)F)c(F)c3)C(=O)N2C1 [PP0919] | B (a compound having 3 or more and less than 10 is denoted as B) | B (a compound having 3 or more and less than 10 is denoted as B) |  | Kd ([3]; SPR, Single Cycle Kinetics): 0.81 nM |
| CCCN1C(=O)CN(C)C(=O)[C@@H]2CCN2C(=O)[C@H]([C@@H](C)CC)NC(=O)[C@H](CC(C)C)N(C)C(=O)C[C@@H](C(=O)N(C)C)NC(=O)[C@H](C2CCCC2)N(C)C(=O)C2(CCC2)NC(=O)[C@@H]2CCCN2C(=O)[C@H](CCc2ccc(C(F)(F)F)c(Cl)c2)NC(=O)CN(C)C(=O)[C@@H]1Cc1ccc(C(F)(F)F)cc1 [PP0374] ([NMeL]I[Aze][Sar][NPrPhe(4-CF3)][Sar][hPhe(3-Cl-4-CF3)]P[Ac4c][NMeGly(cPent)]D-NMe2; lactam N-11) | B (a compound having 3 or more and less than 10 is denoted as B) | B (a compound having 3 or more and less than 10 is denoted as B) | 1.8 |  |
| CCCN1C(=O)[C@@H]2[C@@H](C)CN2C(=O)[C@H](C)N(C)C(=O)[C@H]([C@@H](C)CC)NC(=O)[C@H](CC(C)C)N(C)C(=O)C[C@@H](C(=O)N2CCOCC2)N(C)C(=O)[C@H](C2CCCC2)N(C)C(=O)C2(CCCC2)NC(=O)[C@@H]2CCCN2C(=O)[C@H](CCc2ccc(C(F)(F)F)c(Cl)c2)NC(=O)CN(C)C(=O)[C@@H]1Cc1ccc(C(F)(F)F)cc1 [PP0141] ([NMeL]I[NMeA][Aze(3S-Me)][NPrPhe(4-CF3)][Sar][hPhe(3-Cl-4-CF3)]P[Ac5c][NMeGly(cPent)][NMeD]-Morpholide; lactam N-11) | B (a compound having 3 or more and less than 10 is denoted as B) | C (A compound having a KD ratio of 0.1 or more and less than 3 is denoted as C) | 0.55 |  |
| CC[C@H](C)[C@@H]1NC(=O)[C@H](CC(C)C)N(C)C(=O)C[C@@H](C(=O)N2CCOCC2)N(C)C(=O)[C@H](C2CCCC2)N(C)C(=O)C2(CCOCC2)NC(=O)[C@@H]2CCCN2C(=O)[C@H](CCc2cc(F)c(C(F)(F)F)c(F)c2)NC(=O)CN(C)C(=O)[C@H](Cc2ccc(C(F)(F)F)cc2)N2CCCC[C@@H](C2=O)N(C)C(=O)CN(C)C1=O [PP0564] |  |  | 0.18 | HRAS/KRAS (ratio of KD value with respect to HRAS to KD value with respect to KRAS) [1]: B (a compound having 3 or more and less than 10 is denoted as B); NRAS/KRAS (ratio of KD value with respect to NRAS to KD value with respect to KRAS) [2]: B (a compound having 3 or more and less than 10 is denoted as B) |
| CCC[C@H]1C(=O)N[C@@H](C2CCCC2)C(=O)N(C)CC(=O)N(C)[C@H]2C/C=C\CCN(C2=O)[C@@H](Cc2ccc(C)cc2)C(=O)N(C)CC(=O)N[C@@H](CCc2cc(F)c(C(F)(F)F)c(F)c2)C(=O)N2CC3(CC3)C[C@H]2C(=O)NC2(CC(C)(C)C2)C(=O)N(C)[C@@H](CC(C)(C)C)C(=O)N(C)[C@H](C(=O)N(C)C)CC(=O)N1C [PP2999] | A (a compound having 10 or more and less than 20 is denoted as A) | AA (a compound having 20 or more is denoted as AA) |  | Kd ([3]; SPR, Single Cycle Kinetics): 0.13 nM |
| CC[C@H](C)[C@@H]1NC(=O)[C@H](CC(C)C)N(C)C(=O)C[C@@H](C(=O)N2CCOCC2)N(C)C(=O)[C@H](C2CCCC2)N(C)C(=O)C2(CCCCC2)NC(=O)[C@@H]2CCCN2C(=O)[C@H](CCc2ccc(C(F)(F)F)c(Cl)c2)NC(=O)CN(C)C(=O)[C@H](Cc2ccc(C(F)(F)F)cc2)N(CC)C(=O)CN(C)C(=O)CN(C)C1=O [PP0236] ([NMeL]I[Sar][Sar][NEtPhe(4-CF3)][Sar][hPhe(3-Cl-4-CF3)]P[Ac6c][NMeGly(cPent)][NMeD]-Morpholide; lactam N-11) | C (A compound having a KD ratio of 0.1 or more and less than 3 is denoted as C) | B (a compound having 3 or more and less than 10 is denoted as B) | 0.54 |  |
| CC[C@H](C)[C@@H]1NC(=O)[C@H](CC2CC2)N(C)C(=O)C[C@@H](C(=O)N2CCCC2)N(C)C(=O)[C@H](C2CCCC2)N(C)C(=O)C2(CCCC2)NC(=O)[C@@H]2C[C@@H](F)CN2C(=O)[C@H](CCc2cc(F)c(C(F)(F)F)c(F)c2)NC(=O)CN(C)C(=O)[C@H](Cc2ccc(C(F)(F)F)cc2)N2CC/C=C\C[C@@H](C2=O)N(C)C(=O)CN(C)C1=O [PP1503] |  |  |  | HRAS/KRAS (ratio of KD value for HRAS to KD value for KRAS) ([1]; KD ratio class): A (a compound having 10 or more and less than 20 is denoted as A); NRAS/KRAS (ratio of KD value for NRAS to KD value for KRAS) ([2]; KD ratio class): A (a compound having 10 or more and less than 20 is denoted as A); Kd ([3]; SPR, Single Cycle Kinetics, 1:1 binding model): 0.11 nM |
| CCCN1C(=O)CN(C)C(=O)CN(CC)C(=O)[C@H]([C@@H](C)CC)NC(=O)[C@H](CC(C)C)N(C)C(=O)C[C@@H](C(=O)N2CCOCC2)NC(=O)[C@H](C2CCCC2)N(C)C(=O)C2(CCC2)NC(=O)[C@@H]2C[C@@H](OCC)CN2C(=O)[C@H](CCc2ccc(C(F)(F)F)c(Cl)c2)NC(=O)CN(C)C(=O)[C@@H]1Cc1ccc(C(F)(F)F)cc1 [PP0336] ([NMeL]I[NEtG][Sar][NPrPhe(4-CF3)][Sar][hPhe(3-Cl-4-CF3)][Hyp](Et)[Ac4c][NMeGly(cPent)]D-Morpholide; lactam N-11) | B (a compound having 3 or more and less than 10 is denoted as B) | B (a compound having 3 or more and less than 10 is denoted as B) | 1.6 |  |
| CCCN1C(=O)CN(C)C(=O)CN(C)C(=O)[C@H]([C@@H](C)CC)NC(=O)[C@H](CC(C)C)N(C)C(=O)C[C@@H](C(=O)N2CCOCC2)N(C)C(=O)[C@H](C2CCCC2)N(C)C(=O)C2(CCCCC2)NC(=O)[C@@H]2CCCN2C(=O)[C@H](CCc2ccc(C(F)(F)F)c(Cl)c2)NC(=O)CN(C)C(=O)[C@@H]1Cc1ccc(C(F)(F)F)cc1 [PP0231] ([NMeL]I[Sar][Sar][NPrPhe(4-CF3)][Sar][hPhe(3-Cl-4-CF3)]P[Ac6c][NMeGly(cPent)][NMeD]-Morpholide; lactam N-11) | C (A compound having a KD ratio of 0.1 or more and less than 3 is denoted as C) | B (a compound having 3 or more and less than 10 is denoted as B) | 0.55 |  |
| CC[C@H](C)[C@@H]1NC(=O)[C@H](CC(C)C)N(C)C(=O)C[C@@H](C(=O)N2CCOCC2)N(C)C(=O)[C@H](C2CCCC2)N(C)C(=O)C2(CCCC2)NC(=O)[C@@H]2C[C@@H](O)CN2C(=O)[C@H](CCc2ccc(C(F)(F)F)c(Cl)c2)NC(=O)CN(C)C(=O)[C@H](Cc2ccc(C)cc2)N(CC)C(=O)[C@@H]2CCN2C(=O)[C@H](C)N(C)C1=O [PP0013] ([NMeL]I[NMeA][Aze][NEtPhe(4-Me)][Sar][hPhe(3-Cl-4-CF3)][Hyp][Ac5c][NMeGly(cPent)][NMeD]-Morpholide; lactam N-11) | C (A compound having a KD ratio of 0.1 or more and less than 3 is denoted as C) | C (A compound having a KD ratio of 0.1 or more and less than 3 is denoted as C) | 0.073 |  |
| CCC[C@H]1C(=O)N[C@@H]([C@@H](C)CC)C(=O)N(C)CC(=O)N(C)[C@H]2C/C=C\CCN(C2=O)[C@@H](Cc2ccc(C(F)(F)F)cc2)C(=O)N(C)CC(=O)N[C@@H](CCc2ccc(C(F)(F)F)c(Cl)c2)C(=O)N2CC3(CC3)C[C@H]2C(=O)NC2(CC(C)(C)C2)C(=O)N(C)[C@@H](CC(C)C)C(=O)N(C)[C@H](C(=O)N(C)C)CC(=O)N1C [PP2987] | A (a compound having 10 or more and less than 20 is denoted as A) | AA (a compound having 20 or more is denoted as AA) |  | Kd ([3]; SPR, Single Cycle Kinetics): 0.66 nM |
